Assay results from patent publication US12479847B2 (DANA-FARBER CANCER INSTITUTE, INC., priority 2019, dated 2025).

Key:
Assay in all cases: KINOMEscan (ScanMAX) kinase profiling
Format in all cases: binding
[1] = molecular target: T1, panel of 468 kinases (Homo sapiens, UniProt P00533, G719S); conditions: EGFR(G719S); 1 μM; read-out: % control
T1 construct: purchased KINOMEscan (ScanMAX) service

[2] = molecular target: T2, panel of 468 kinases (Homo sapiens, UniProt P25098); conditions: GRK2; 1 μM; read-out: % control
T2 construct: purchased KINOMEscan (ScanMAX) service
T2 sequence (P25098 1-689): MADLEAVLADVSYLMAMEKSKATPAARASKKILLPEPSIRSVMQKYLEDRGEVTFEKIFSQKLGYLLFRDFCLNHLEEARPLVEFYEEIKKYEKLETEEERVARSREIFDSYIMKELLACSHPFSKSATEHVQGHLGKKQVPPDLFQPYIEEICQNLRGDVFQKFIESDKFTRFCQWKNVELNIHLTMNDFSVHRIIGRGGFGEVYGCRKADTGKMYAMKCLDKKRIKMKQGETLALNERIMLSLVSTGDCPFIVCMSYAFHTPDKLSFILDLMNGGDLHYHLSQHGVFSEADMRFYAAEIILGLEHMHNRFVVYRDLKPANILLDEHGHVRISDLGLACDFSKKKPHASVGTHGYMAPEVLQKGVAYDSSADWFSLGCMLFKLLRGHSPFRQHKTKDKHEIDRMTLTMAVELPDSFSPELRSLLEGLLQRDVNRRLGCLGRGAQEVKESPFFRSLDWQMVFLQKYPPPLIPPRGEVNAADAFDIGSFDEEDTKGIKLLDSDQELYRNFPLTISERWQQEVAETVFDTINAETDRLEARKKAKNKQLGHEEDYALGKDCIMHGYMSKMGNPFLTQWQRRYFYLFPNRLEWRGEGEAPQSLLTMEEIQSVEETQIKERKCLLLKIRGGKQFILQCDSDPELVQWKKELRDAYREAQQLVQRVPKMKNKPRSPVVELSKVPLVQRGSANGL

[3] = molecular target: T3, panel of 468 kinases (Homo sapiens, UniProt O75914); conditions: PAK3; 1 μM; read-out: % control
T3 construct: purchased KINOMEscan (ScanMAX) service

[4] = molecular target: T4, panel of 468 kinases (Homo sapiens, UniProt P04626); conditions: ERBB2; 1 μM; read-out: % control
T4 construct: purchased KINOMEscan (ScanMAX) service

[5] = molecular target: T5, panel of 468 kinases (Homo sapiens, UniProt Q7KZI7); conditions: MARK2; 1 μM; read-out: % control
T5 construct: purchased KINOMEscan (ScanMAX) service

[6] = molecular target: T6, panel of 468 kinases (Homo sapiens, UniProt Q6P2M8); conditions: CAMK1B; 1 μM; read-out: % control
T6 construct: purchased KINOMEscan (ScanMAX) service

[7] = molecular target: T7, panel of 468 kinases (Homo sapiens, UniProt Q15759); conditions: p38-beta; 1 μM; read-out: % control
T7 construct: purchased KINOMEscan (ScanMAX) service

[8] = molecular target: T8, panel of 468 kinases (Homo sapiens, UniProt P09769); conditions: FGR; 1 μM; read-out: % control
T8 construct: purchased KINOMEscan (ScanMAX) service

[9] = molecular target: T9, panel of 468 kinases (Homo sapiens, UniProt O14920); conditions: IKK-beta; 1 μM; read-out: % control
T9 construct: purchased KINOMEscan (ScanMAX) service
T9 sequence (O14920 1-756): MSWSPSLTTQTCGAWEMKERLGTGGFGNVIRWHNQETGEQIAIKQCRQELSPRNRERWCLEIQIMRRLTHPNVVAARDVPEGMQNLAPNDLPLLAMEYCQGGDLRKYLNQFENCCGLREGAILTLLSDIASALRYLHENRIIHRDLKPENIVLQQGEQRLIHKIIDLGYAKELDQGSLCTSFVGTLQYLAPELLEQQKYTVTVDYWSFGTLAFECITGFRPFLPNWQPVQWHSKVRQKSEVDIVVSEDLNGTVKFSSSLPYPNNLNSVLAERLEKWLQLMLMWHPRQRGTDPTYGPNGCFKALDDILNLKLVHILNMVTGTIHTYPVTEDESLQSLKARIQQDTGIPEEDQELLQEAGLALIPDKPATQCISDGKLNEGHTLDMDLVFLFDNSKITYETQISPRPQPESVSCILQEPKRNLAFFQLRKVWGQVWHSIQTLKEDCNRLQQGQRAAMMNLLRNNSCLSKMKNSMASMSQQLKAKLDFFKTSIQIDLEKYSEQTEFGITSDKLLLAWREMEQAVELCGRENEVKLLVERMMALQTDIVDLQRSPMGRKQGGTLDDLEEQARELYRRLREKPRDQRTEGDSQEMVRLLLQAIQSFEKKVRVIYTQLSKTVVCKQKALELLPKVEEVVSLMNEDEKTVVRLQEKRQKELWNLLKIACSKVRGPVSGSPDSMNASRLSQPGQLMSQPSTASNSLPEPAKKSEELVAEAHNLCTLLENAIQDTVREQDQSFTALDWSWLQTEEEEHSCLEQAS

[10] = molecular target: T10, panel of 468 kinases (Homo sapiens, UniProt P42681); conditions: TXK; 1 μM; read-out: % control
T10 construct: purchased KINOMEscan (ScanMAX) service
T10 sequence (P42681 1-527): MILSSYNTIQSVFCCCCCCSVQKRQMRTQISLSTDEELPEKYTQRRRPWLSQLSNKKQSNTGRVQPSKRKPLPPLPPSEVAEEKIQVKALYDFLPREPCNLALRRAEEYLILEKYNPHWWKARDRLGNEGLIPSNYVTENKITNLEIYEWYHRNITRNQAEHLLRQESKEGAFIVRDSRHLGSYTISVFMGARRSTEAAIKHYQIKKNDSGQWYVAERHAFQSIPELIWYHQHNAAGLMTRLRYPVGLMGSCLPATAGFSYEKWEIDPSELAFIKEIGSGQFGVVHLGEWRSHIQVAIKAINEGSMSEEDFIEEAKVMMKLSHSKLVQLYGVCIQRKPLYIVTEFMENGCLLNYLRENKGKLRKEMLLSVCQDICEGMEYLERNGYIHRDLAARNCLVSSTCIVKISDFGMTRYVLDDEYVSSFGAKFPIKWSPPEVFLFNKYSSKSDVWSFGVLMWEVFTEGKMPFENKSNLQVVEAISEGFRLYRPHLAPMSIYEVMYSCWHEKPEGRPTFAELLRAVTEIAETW

T6 sequence (Q6P2M8 whole entry): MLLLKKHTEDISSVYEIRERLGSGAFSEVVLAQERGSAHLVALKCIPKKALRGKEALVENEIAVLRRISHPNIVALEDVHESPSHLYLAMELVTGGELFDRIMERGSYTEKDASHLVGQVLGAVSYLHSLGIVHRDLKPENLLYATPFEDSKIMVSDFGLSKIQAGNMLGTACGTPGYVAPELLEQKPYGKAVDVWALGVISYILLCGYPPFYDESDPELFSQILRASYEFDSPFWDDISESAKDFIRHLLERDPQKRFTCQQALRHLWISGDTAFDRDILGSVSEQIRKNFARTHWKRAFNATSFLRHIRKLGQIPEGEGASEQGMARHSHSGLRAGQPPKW
T3 sequence (O75914 whole entry): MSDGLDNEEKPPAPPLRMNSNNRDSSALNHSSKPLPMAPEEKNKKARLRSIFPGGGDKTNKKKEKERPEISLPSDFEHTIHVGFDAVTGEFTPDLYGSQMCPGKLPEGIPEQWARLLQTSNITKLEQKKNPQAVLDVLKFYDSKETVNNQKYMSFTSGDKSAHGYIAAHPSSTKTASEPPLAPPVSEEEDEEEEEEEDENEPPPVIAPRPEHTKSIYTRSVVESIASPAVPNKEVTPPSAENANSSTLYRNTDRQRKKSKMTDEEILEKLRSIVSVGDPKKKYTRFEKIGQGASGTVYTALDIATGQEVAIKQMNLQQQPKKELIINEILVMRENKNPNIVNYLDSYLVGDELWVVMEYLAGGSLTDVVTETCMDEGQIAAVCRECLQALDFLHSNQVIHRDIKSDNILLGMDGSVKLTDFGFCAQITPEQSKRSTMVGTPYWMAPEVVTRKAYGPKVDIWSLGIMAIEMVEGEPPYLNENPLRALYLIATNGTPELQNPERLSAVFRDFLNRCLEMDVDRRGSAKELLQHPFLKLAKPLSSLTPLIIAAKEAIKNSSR
T4 sequence (P04626 23-1255): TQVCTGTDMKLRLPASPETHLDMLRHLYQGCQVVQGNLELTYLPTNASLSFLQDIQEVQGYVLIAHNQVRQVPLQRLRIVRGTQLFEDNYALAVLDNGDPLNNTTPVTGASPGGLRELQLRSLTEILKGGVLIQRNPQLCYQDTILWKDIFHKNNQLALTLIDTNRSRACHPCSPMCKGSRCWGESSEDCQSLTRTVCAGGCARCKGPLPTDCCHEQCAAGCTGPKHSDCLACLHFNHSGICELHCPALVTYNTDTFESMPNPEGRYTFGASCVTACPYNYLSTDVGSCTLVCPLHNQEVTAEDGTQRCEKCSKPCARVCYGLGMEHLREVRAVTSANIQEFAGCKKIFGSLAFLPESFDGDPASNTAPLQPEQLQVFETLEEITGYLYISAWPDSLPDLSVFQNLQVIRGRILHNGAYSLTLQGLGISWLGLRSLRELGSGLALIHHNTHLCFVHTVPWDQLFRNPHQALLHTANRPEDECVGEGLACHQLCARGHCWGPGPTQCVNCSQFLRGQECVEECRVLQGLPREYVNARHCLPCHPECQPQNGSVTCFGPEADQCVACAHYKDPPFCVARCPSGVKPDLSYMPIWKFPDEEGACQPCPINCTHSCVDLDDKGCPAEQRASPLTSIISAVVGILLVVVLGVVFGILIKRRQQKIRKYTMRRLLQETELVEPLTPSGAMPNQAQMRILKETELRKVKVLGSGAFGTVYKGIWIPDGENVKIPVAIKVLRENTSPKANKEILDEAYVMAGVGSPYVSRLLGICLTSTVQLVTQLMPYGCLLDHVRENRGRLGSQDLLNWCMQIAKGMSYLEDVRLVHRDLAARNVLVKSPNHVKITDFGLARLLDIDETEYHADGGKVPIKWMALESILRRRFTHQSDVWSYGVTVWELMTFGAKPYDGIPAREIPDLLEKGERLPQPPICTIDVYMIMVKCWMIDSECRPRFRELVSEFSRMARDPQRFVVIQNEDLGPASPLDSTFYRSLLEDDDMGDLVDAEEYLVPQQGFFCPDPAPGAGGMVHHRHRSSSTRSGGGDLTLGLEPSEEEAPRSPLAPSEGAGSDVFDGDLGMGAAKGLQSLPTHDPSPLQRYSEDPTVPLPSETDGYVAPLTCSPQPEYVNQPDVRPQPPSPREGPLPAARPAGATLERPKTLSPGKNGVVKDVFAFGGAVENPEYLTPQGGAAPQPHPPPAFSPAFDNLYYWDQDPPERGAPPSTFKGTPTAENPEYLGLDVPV
T1 sequence (P00533 25-1210 G719S): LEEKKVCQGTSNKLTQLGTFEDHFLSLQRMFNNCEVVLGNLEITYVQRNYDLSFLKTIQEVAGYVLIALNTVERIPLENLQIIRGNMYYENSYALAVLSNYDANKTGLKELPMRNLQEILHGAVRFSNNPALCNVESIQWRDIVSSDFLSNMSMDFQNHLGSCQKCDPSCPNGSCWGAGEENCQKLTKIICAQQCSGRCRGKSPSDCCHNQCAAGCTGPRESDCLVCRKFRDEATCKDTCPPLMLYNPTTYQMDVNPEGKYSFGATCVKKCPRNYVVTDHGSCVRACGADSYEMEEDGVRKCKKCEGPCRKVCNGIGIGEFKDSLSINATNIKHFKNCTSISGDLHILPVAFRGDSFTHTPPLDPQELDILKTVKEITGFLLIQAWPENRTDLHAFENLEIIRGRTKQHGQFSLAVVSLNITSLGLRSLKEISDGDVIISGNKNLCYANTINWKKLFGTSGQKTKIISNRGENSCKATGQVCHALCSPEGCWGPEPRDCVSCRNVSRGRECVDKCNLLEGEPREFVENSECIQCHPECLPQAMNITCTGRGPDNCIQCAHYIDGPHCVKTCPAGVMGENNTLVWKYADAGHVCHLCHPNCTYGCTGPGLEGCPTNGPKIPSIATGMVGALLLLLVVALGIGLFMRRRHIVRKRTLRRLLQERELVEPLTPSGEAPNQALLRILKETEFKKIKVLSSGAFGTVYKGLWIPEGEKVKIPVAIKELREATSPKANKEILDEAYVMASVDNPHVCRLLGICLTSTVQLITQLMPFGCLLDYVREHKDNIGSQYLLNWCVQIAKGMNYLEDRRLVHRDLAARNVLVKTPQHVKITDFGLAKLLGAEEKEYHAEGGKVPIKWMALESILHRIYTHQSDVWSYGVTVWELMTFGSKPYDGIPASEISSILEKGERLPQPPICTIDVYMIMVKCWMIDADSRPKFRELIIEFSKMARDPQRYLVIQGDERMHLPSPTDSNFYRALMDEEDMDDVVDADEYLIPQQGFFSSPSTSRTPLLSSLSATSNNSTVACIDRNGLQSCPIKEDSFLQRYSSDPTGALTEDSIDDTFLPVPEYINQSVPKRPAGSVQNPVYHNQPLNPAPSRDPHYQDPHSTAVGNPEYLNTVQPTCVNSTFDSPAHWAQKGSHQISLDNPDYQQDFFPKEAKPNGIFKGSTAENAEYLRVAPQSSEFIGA
T8 sequence (P09769 whole entry): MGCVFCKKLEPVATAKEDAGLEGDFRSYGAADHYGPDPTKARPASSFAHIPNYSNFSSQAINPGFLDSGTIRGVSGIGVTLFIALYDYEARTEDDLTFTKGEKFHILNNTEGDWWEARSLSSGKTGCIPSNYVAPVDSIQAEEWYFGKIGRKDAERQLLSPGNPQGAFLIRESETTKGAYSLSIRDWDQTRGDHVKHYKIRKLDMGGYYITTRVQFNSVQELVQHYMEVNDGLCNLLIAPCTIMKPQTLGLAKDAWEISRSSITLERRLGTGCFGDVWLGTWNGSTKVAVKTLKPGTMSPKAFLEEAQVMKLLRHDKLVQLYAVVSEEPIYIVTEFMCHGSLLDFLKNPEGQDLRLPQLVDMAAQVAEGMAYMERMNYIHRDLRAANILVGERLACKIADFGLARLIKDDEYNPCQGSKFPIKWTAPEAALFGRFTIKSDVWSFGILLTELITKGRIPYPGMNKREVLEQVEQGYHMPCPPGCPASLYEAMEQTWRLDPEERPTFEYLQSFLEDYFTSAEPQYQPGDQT
T5 sequence (Q7KZI7 whole entry): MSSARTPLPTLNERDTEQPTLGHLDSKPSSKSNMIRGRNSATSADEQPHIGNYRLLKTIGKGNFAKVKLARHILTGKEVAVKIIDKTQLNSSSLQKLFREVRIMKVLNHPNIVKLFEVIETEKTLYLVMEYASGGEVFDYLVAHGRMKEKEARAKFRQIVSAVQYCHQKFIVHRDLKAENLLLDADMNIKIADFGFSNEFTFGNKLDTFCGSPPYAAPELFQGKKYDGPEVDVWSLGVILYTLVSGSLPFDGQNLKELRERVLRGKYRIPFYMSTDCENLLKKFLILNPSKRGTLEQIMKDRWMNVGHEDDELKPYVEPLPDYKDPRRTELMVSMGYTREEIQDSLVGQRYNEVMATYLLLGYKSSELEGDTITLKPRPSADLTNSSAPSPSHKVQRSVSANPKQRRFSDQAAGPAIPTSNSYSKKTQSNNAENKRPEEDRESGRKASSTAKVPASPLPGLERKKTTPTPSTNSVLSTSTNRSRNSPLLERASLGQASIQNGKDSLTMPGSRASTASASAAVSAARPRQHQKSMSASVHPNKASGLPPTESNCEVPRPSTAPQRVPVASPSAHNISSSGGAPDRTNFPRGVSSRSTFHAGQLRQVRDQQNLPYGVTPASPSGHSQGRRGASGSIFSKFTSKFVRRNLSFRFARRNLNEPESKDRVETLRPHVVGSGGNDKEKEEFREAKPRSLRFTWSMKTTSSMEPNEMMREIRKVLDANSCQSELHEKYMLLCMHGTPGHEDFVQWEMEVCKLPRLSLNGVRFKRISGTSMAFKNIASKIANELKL
T7 sequence (Q15759 whole entry): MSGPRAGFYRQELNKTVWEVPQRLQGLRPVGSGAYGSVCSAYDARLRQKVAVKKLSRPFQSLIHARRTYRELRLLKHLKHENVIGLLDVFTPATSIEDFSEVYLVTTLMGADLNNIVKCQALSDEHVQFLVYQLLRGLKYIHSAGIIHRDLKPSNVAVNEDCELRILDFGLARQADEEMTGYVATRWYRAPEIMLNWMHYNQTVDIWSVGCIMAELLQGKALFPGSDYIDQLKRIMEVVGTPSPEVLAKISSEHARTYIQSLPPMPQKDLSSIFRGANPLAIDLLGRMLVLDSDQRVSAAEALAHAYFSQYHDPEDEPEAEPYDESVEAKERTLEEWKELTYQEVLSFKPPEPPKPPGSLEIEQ

SMILES | remaining binding at 1 µM [1] [%] | remaining binding at 1 µM [2] [%] | remaining binding at 1 µM [3] [%] | remaining binding at 1 µM [4] [%] | remaining binding at 1 µM [5] [%] | remaining binding at 1 µM [6] [%] | remaining binding at 1 µM [7] [%] | remaining binding at 1 µM [8] [%] | remaining binding at 1 µM [9] [%] | remaining binding at 1 µM [10] [%]
CNc1nc(Nc2ccc(S(=O)(=O)N3CCC(N4CCOCC4)CC3)cc2OC)nc2[nH]cc(Cl)c12 [Compound 12, 5-chloro-N2-(2-methoxy-4-((4-morpholinopiperidin-1-yl)sulfonyl)phenyl)-N4-methyl-7H-pyrrolo[2,3-d]pyrimidine-2,4-diamine] | 99 | 100 | 100 | 80 | 100 | 95 | 100 | 100 | 100 | 100
CNc1nc(Nc2ccc(C(=O)N3CCC(N4CCOCC4)CC3)c3c2OCO3)nc2[nH]cc(Cl)c12 [Compound 75, (7-((5-chloro-4-(methylamino)-7H-pyrrolo[2,3-d]pyrimidin-2-yl)amino)benzo[d][1,3]dioxol-4-yl)(4-morpholinopiperidin-1-yl)methanone] | 100 | 100 | 97 | 85 | 100 | 44 | 100 | 100 | 96 | 87
CNc1nc(Nc2ccc(P3(=O)CCN(C4CCOCC4)CC3)cc2OC)nc2[nH]cc(Cl)c12 [Compound 77, 4-(4-((5-chloro-4-(methylamino)-7H-pyrrolo[2,3-d]pyrimidin-2-yl)amino)-3-methoxyphenyl)-1-(tetrahydro-2H-pyran-4-yl)-1,4-azaphosphinane 4-oxide] | 100 | 98 | 91 | 99 | 100 | 54 | 100 | 100 | 95 | 98
